Experimental data published in US20230107941A1, “HEPATITIS B CAPSID ASSEMBLY MODULATORS” (Venatorx Pharmaceuticals, Inc., priority 2019, published 2023).

Legend:
[1] = In vitro cytotoxicity assay (MTT cell viability) in HepG2 cells; assay type: cell-based, human; details: human
Protocol: To evaluate antiviral selectivity, the cytotoxic activity of each compound was determined using a standard cell viability assay performed on the parental HepG2 cell line. Cell viability was determined by measuring the conversion of 3-(4,5-dimethylthiazol-2-yl)-2,5-diphenyltetrazolium bromide (MTT) to the insoluble formazan salt crystal that occurs in live cells. Briefly, HepG2 cells were seeded in 96-well plates at a density of 20,000 cells per well in […] (complete growth medium) and allowed to adhere overnight in a 37° C., […] humidified incubator. The next day, test agents were prepared by performing 8 half-log10 serial dilutions in 100% DMSO at 200× the final desired concentration in the assay. Compounds were tested over a range of concentrations from 30 μM to 1.0 nM in the assay. HepG2 cells were incubated in the presence of various concentrations of CAMs for 7 days in a 37° C., […] humidified incubator. At the completion of the 7-day incubation period, MTT reagent was added to each well and the mixture was incubated for an additional 3-4 hours. At the completion of the incubation period, all wells were aspirated to remove the culture medium. The formazan crystals were solubilized from the cell monolayers with 100% DMSO. Plates were briefly mixed on an orbital shaker and absorbance was measured at 492 nm using a Perkin-Elmer EnVision multi-label plate reader. All absorbance values were converted to a percentage of the signal obtained from the vehicle treated controls. Absorbance values at 492 nm are directly proportional to the number of viable cells present in the sample. A CC50 value (cytotoxic concentration that results in loss of 50% cell viability) was calculated from the dose-response curve by 4-parameter, non-linear regression analysis using the GraphPad Prism software. The positive control compound, staurosporine, reduced the viability of HepG2 cells in a dose-dependent manner (CC50=100 nM).

HBV = assay: In vitro antiviral assay: anti-HBV replication in HepAD38 cells (extracellular HBV DNA by QPCR); assay type: cell-based, hepatitis B virus (genotype D, serotype ayw); details: Hepatitis B virus, HePAD38, 168 h, 7 days incubation, extracellular HBV DNA by QPCR, read-out: Anti-HBV EC50
Protocol: The anti-HBV activity of the Capsid Assembly Modulators (CAMs) was evaluated in a cell based assay utilizing the human hepatoma cell line HepAD38 (Ladner, S K., et al., 1998). HepAD38 cells were derived from the parental line, HepG2, that were stably transfected with a construct containing an HBV genome (genotype D, serotype ayw) under the control of a tetracycline repressible CMV promoter. Upon removal of tetracycline, viral pre-genomic RNA (pgRNA) and mRNAs are expressed and infectious viral particles are assembled and secreted into the culture medium providing a reliable, robust system to measure multiple steps of the HBV life cycle. Disruption of capsid formation results in reduced levels of DNA-containing virus particles that are released into the culture supernatant. To quantify the effect of CAMs on HBV replication, we developed a sensitive QPCR-based assay that measures extracellular HBV DNA levels upon treatment of HepAD38 cells with various concentrations of test compounds.
HepAD38 cells were maintained in DMEM/F12 medium containing 10% FBS, 400 μg/mL G418 and 0.3 μg/mL tetracycline (tet+ media) to maintain repression of HBV replication. To evaluate each compound, HepAD38 cells were seeded into 24-well collagen coated culture plates (Corning BioCoat) at a density of 200,000 cells per well in 1 mL of medium without tetracycline (tet-media) and allowed to adhere overnight at 37° C., 5% CO2 in a humidified incubator. The following day, media was refreshed and a dose range of each compound was prepared by performing 1 log10 serial dilutions in 100% DMSO at 200× the desired assay concentration. Dilutions were then added to the cells resulting in a final dose range of 1 μM to 10 pM and the plates were returned to the incubator. Following 7 days of incubation, culture supernatants were harvested and HBV DNA levels were evaluated by QPCR and compared to the vehicle treated control wells (i.e. DMSO alone).
To quantify HBV DNA levels, cell culture supernatants were diluted 1:10 in sterile, nuclease-free water (Gibco). The diluted supernatants were subsequently added to a PCR master mix containing 1× Roche Light Cycler Master Mix, 0.5 μM forward primer, 0.5 μM reverse primer (Fwd: 5′-[…] (SEQ ID NO 1); Rev: 5′-[…] (SEQ ID NO 2)), 0.2 μM Roche Universal Probe Library Probe 25. The volume was brought to 20 μL with nuclease-free water and amplification of the HBV target sequence was performed using a Roche LightCycler 480 QPCR instrument. PCR extended out to 45 cycles with each cycle consisting of a denaturation step at 95° C. for 10 sec., followed by an annealing step at 60° C. for 10 sec. and a brief extension step at 72° C. for 1 sec.
Extracellular HBV DNA levels, expressed in copies/mL, were determined by comparison to a standard curve (10^2-10^9 copies/mL) using the Roche LightCycler analysis software. These values were subsequently converted to percent inhibition of HBV replication by dividing the HBV DNA levels in the experimental samples with those obtained from the vehicle control (˜1-2×10^5 copies/mL). Potency, expressed as an EC50 (the effective concentration required to inhibit 50% of HBV replication), was calculated from the dose-response curve using a 4-parameter non-linear regression analysis (GraphPad Prism). The nucleoside analog inhibitor entecavir was used as a positive control to validate each assay run. The EC50 value of entecavir in the HepAD38 assay was 0.5 nM, as previously reported in the literature.

SMILES: Cc1cc(NC(=O)c2c(C)c(C(=O)C(=O)N[C@H]3[C@@H]4CC[C@@H](C4)[C@H]3CO)n(C)c2C)ccc1F [Example 20, N-(4-fluoro-3-methylphenyl)-5-(2-(((1R,2S,3R,4S)-3-(hydroxymethyl)bicyclo[2.2.1]heptan-2-yl)amino)-2-oxoacetyl)-1,2,4-trimethyl-1H-pyrrole-3-carboxamide]
- CC50 at 7 days [1]: > 30000 nM
- EC50 (HBV): < 50 nM

SMILES: Cc1cc(NC(=O)c2c(C)c(C(=O)C(=O)N[C@]3(C)CC[C@H](O)CC3)n(C)c2C2CCCC2)ccc1F [Example 133, 2-cyclopentyl-N-(4-fluoro-3-methylphenyl)-5-(2-(((1s,4s)-4-hydroxy-1-methylcyclohexyl)amino)-2-oxoacetyl)-1,4-dimethyl-1H-pyrrole-3-carboxamide]
- CC50 at 7 days [1]: > 30000 nM
- EC50 (HBV): < 50 nM

SMILES: CCC1(NC(=O)C(=O)c2c(C)c(C(=O)Nc3ccc(F)c(C)c3)c(C)n2C)CCN(c2cccnn2)CC1 [Example 44, 5-(2-((4-ethyl-1-(pyridazin-3-yl)piperidin-4-yl)amino)-2-oxoacetyl)-N-(4-fluoro-3-methylphenyl)-1,2,4-trimethyl-1H-pyrrole-3-carboxamide]
- CC50 at 7 days [1]: > 30000 nM
- EC50 (HBV): < 50 nM

SMILES: Cc1cc(NC(=O)c2c(C)c(C(=O)C(=O)NCC(C)(C)O)n(C)c2C(C)C)ccc1F [Example 113, N-(4-fluoro-3-methylphenyl)-5-(2-((2-hydroxy-2-methylpropyl)amino)-2-oxoacetyl)-2-isopropyl-1,4-dimethyl-1H-pyrrole-3-carboxamide]
- CC50 at 7 days [1]: > 30000 nM
- EC50 (HBV): 50 to 499 nM

SMILES: Cc1cc(NC(=O)c2c(C)c(C(=O)C(=O)N[C@H]3CC[C@@H](O)CC3)n(C)c2CC2CC2)ccc1F [Example 126, 2-(cyclopropylmethyl)-N-(4-fluoro-3-methylphenyl)-5-(2-(((1s,4s)-4-hydroxycyclohexyl)amino)-2-oxoacetyl)-1,4-dimethyl-1H-pyrrole-3-carboxamide]
- CC50 at 7 days [1]: > 30000 nM
- EC50 (HBV): < 50 nM

SMILES: Cc1cc(NC(=O)c2c(C(C)C)c(C(=O)C(=O)NCC(C)(C)O)n(C)c2C)ccc1F [Example 94, N-(4-fluoro-3-methylphenyl)-5-(2-((2-hydroxy-2-methylpropyl)amino)-2-oxoacetyl)-4-isopropyl-1,2-dimethyl-1H-pyrrole-3-carboxamide]
- CC50 at 7 days [1]: > 30000 nM
- EC50 (HBV): 500 to 1000 nM

SMILES: Cc1cc(NC(=O)c2c(C)c(C(=O)C(=O)N[C@]3(C)CC[C@H](O)CC3)n(C)c2-c2nccs2)ccc1F [Example 176, N-(4-fluoro-3-methylphenyl)-5-(2-(((1s,4s)-4-hydroxy-1-methylcyclohexyl)amino)-2-oxoacetyl)-1,4-dimethyl-2-(thiazol-2-yl)-1H-pyrrole-3-carboxamide]
- CC50 at 7 days [1]: > 30000 nM
- EC50 (HBV): 50 to 499 nM

SMILES: Cc1cc(NC(=O)c2c(C)c(C(=O)C(=O)NC34CC(O)(C3)C4)n(C)c2C)ccc1F [Example 82, N-(4-fluoro-3-methylphenyl)-5-(2-((3-hydroxybicyclo[1.1.1]pentan-1-yl)amino)-2-oxoacetyl)-1,2,4-trimethyl-1H-pyrrole-3-carboxamide]
- CC50 at 7 days [1]: > 30000 nM
- EC50 (HBV): < 50 nM

SMILES: Cc1c(C(=O)Nc2cccc(S(N)(=O)=O)c2)c(C)n(C)c1C(=O)C(=O)NC(C)(C)C [Example 65, 5-(2-(tert-butylamino)-2-oxoacetyl)-1,2,4-trimethyl-N-(3-sulfamoylphenyl)-1H-pyrrole-3-carboxamide]
- CC50 at 7 days [1]: > 30000 nM
- EC50 (HBV): > 1000 nM

SMILES: Cc1cc(NC(=O)c2c(C)c(C(=O)C(=O)N[C@@H]3CN[C@H](C(=O)O)C3)n(C)c2C)ccc1F [Example 179, (2S,4S)-4-(2-(4-((4-fluoro-3-methylphenyl)carbamoyl)-1,3,5-trimethyl-1H-pyrrol-2-yl)-2-oxoacetamido)pyrrolidine-2-carboxylic acid]
- CC50 at 7 days [1]: > 30000 nM
- EC50 (HBV): > 1000 nM

SMILES: Cc1cc(NC(=O)c2c(C)c(C(=O)C(=O)N[C@H]3CCCC(F)(F)[C@@H]3O)n(C)c2C)ccc1F [Example 13, 5-(2-(((1S,2R)-3,3-difluoro-2-hydroxycyclohexyl)amino)-2-oxoacetyl)-N-(4-fluoro-3-methylphenyl)-1,2,4-trimethyl-1H-pyrrole-3-carboxamide]
- CC50 at 7 days [1]: > 30000 nM
- EC50 (HBV): < 50 nM

SMILES: Cc1cc(NC(=O)c2c(C)c(C(=O)C(=O)N[C@@H]3C[C@@H](C(=O)O)N(C)C3)n(C)c2C)ccc1F [Example 171, (2S,4R)-4-(2-(4-((4-fluoro-3-methylphenyl)carbamoyl)-1,3,5-trimethyl-1H-pyrrol-2-yl)-2-oxoacetamido)-1-methylpyrrolidine-2-carboxylic acid]
- CC50 at 7 days [1]: > 30000 nM
- EC50 (HBV): > 1000 nM

SMILES: Cc1c(C(=O)Nc2cc(F)c(F)c(F)c2)c(C)n(C)c1C(=O)C(=O)N[C@]1(C)CC[C@@H](O)CC1 [Example 25, 5-(2-(((1r,4r)-4-hydroxy-1-methylcyclohexyl)amino)-2-oxoacetyl)-1,2,4-trimethyl-N-(3,4,5-trifluorophenyl)-1H-pyrrole-3-carboxamide]
- CC50 at 7 days [1]: > 30000 nM
- EC50 (HBV): < 50 nM

SMILES: Cc1c(C(=O)Nc2ccc(F)c(C#N)c2)c(C)n(C)c1C(=O)C(=O)Nc1cccc(B(O)O)c1 [Example 141, (3-(2-(4-((3-cyano-4-fluorophenyl)carbamoyl)-1,3,5-trimethyl-1H-pyrrol-2-yl)-2-oxoacetamido)phenyl)boronic acid]
- CC50 at 7 days [1]: > 30000 nM
- EC50 (HBV): 50 to 499 nM

SMILES: Cc1c(C(=O)Nc2cc(Cl)nc(Cl)c2)c(C)n(C)c1C(=O)C(=O)N[C@]1(C)CC[C@@H](O)CC1 [Example 9, N-(2,6-dichloropyridin-4-yl)-5-(2-(((1r,4r)-4-hydroxy-1-methylcyclohexyl)amino)-2-oxoacetyl)-1,2,4-trimethyl-1H-pyrrole-3-carboxamide]
- CC50 at 7 days [1]: > 30000 nM
- EC50 (HBV): < 50 nM

SMILES: Cc1cc(NC(=O)c2c(C3CC3)c(C(=O)C(=O)N[C@]3(C)C[C@H](O)C3)n(C)c2C)ccc1F [Example 98, 4-cyclopropyl-N-(4-fluoro-3-methylphenyl)-5-(2-(((1s,3s)-3-hydroxy-1-methylcyclobutyl)amino)-2-oxoacetyl)-1,2-dimethyl-1H-pyrrole-3-carboxamide]
- CC50 at 7 days [1]: > 30000 nM
- EC50 (HBV): 50 to 499 nM

SMILES: Cc1cc(NC(=O)c2c(C)c(C(=O)C(=O)N[C@@H]3CC[C@H](O)C[C@@H]3F)n(C)c2C)ccc1F [Example 122, N-(4-fluoro-3-methylphenyl)-5-(2-(((1R,2S,4S)-2-fluoro-4-hydroxycyclohexyl)amino)-2-oxoacetyl)-1,2,4-trimethyl-1H-pyrrole-3-carboxamide]
- CC50 at 7 days [1]: 5000 to 30000 nM
- EC50 (HBV): < 50 nM
